This is an account of results in paper PMC9457730, “Ajuforrestin A, an Abietane Diterpenoid from Ajuga ovalifolia var. calanthe, Induces A549 Cell Apoptosis by Targeting SHP2” (Molecules, 2022).

For one assay, the target named is T1, SHP1 (Homo sapiens, UniProt P29350).
T1 construct: GST; made in house; host or cells: Escherichia coli BL21
The assay can be described thus: SHP1 catalytic activity in vitro (DiFMUP substrate). The format is biochemical. Conditions: for inhibitory effect on SHP1 catalytic activity: at high concentrations. On the procedure:
(§1) Escherichia coli BL21 was used to express SHP1 and SHP2 protein and proteins were purified with GST tag. In total, 15 nM SHP1 or SHP2 purified protein, a test compound (10 μM) or DMSO and reaction buffer in 100 μL constitute the reaction system. DiFMUP (10 μM) was added to the reaction system to initiate the reaction. The inhibitory effects of compounds 1–3 were detected by Varioskan Lux with 355 nm excitation and 460 nm emission wavelengths.

Assay [1] deals with T2, SHP2 (Homo sapiens, UniProt Q06124).
T2 sequence (Q06124 1-593): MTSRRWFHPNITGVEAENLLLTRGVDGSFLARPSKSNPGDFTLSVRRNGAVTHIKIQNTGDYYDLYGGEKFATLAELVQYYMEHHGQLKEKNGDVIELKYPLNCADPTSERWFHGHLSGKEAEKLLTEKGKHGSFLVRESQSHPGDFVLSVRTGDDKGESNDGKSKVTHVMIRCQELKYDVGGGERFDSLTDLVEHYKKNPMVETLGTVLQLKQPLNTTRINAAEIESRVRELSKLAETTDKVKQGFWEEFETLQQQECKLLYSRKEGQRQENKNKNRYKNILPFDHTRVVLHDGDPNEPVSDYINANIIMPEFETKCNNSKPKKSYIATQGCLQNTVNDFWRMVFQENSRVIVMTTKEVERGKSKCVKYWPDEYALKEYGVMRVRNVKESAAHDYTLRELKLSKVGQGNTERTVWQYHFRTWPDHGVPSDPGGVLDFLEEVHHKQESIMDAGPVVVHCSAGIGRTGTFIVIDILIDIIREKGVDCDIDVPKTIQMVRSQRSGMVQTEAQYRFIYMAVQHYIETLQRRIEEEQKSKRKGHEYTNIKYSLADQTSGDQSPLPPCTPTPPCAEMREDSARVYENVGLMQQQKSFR
The assay can be described thus: SHP2 catalytic activity in vitro (DiFMUP substrate). The format is biochemical. More on the design: GST; made in house; host or cells: Escherichia coli BL21. Conditions: 15 nM purified SHP2, DiFMUP 10 μM. Here is the method:
as §1

Assay [2] deals with A549 cells. The assay can be described thus: Cell viability assay (CCK-8). The format is cell-based, Human.
The subject of assay [3] is A549 cells. The assay can be described thus: Apoptosis flow cytometry (Annexin V-FITC/PI). The format is cell-based, Human. Conditions: A549, 72 h. Here is the method:
After 72 h treatment with different concentrations of compound 2, A549 cells were collected and rinsed three times with PBS. A 195 μL Annexin V-FITC buffer, 5 μL Annexin V-FITC, and 10 μL PI were sequentially added to each sample. The apoptotic cells were detected and analyzed by flow cytometry (ACEA NovoCyte, Hangzhou, China).

Assay [4] relates to SHP2. As to the kind of experiment: Western blot of cellular SHP2 / p-SHP2 expression. The format is cell-based, Human. To be noted: A549, 72 h. Here is the method: (§2) After compound 2 treatment, RIPA buffer was used to lyse cells’ protein. Equal sample proteins were added in SDS-PAGE, separated with 100 V in 60 min, then transferred into PVDF membranes, and the membranes incubated with corresponding primary antibodies (Huabio, Hangzhou, China). GAPDH or Tubulin served as normal control.
In general terms: In western blotting, separated proteins are transferred to a membrane and probed.

Assay [5] concerns p-ERK1/2, PI3K-AKT and STAT3 signaling pathways. The assay can be described thus: Western blot of ERK, AKT, STAT3 signaling pathway. The format is cell-based, Human. Conditions: A549, 72 h. On the procedure: as §2
The test system of assay [6] is A549 cells. The assay can be described thus: A549 cell invasion assay (matrigel). To be noted: 24 h incubation. The format is cell-based, Human. On the procedure:
The inner chamber was pre-coated with matrigel. Cells were seeded in the inner chamber with FBS-free medium, and DMEM medium with 5% FBS was added to the outer chamber. After a 24 h treatment with compound 2, 4% paraformaldehyde was used to fix the cells and 0.1% crystal violet was used to stain A549 cells.

Assay [7] concerns A549 cells. As to the kind of experiment: A549 cell wound-healing assay. The format is cell-based, Human. To be noted: up to 72 h. On the procedure: When the A549 cell covered 80% of cell culture dish, these cells were seeded in 6-well plates at 5 × 10^5 cells/well, respectively. After the cells adhered to the plates, wound formation was performed by 200 μL pipette tips. Then, A549 cells were treated with different concentrations of compound 2 for 72 h. The image of each gap was obtained by Leica TCS SP8 (Leica, Wetzlar, Germany) at 0, 24, 72 h, respectively.

Assay [8] relates to cleaved caspase-3, 8, 9 and cleaved-PARP. As to the kind of experiment: Western blot of apoptosis-related signaling pathway. The format is cell-based, Human. Conditions: A549, 72 h. Here is the method: as §2
The subject of the next assay is caspase-3. As to the kind of experiment: Caspase-3 activity assay (Ac-DEVD-AFC). The format is cell-based, Human. Conditions: A549, 72 h. On the procedure:
Ac-DEVD-AFC, a caspase-3 fluorimetric substrate, was used to detect caspase-3 activity. After 72 h treatment with compound 2, cell supernatants were collected. The 20 μL cell supernatants, 100 μM Ac-DEVD-AFC, and reaction buffer constituted the 100 μL reaction system, and was then incubated at 37 °C for another 1 h. Caspase-3 activity was detected by Varioskan Lux with 405 nm excitation and 510 nm emission wavelengths.

The target in assay [9] is T2, SHP2. As to the kind of experiment: Cellular thermal shift assay (CETSA). The format is binding. More on the design: endogenous in cells; host or cells: A549. Conditions: A549 cell supernatant. On the procedure: A total of 549 cells in 12 cm dish were collected and washed with PBS three times. After three rounds of liquid nitrogen-thaw and centrifugation at 13,000× g for 10 min at 4 °C, the cell supernatant was collected. The cell supernatant was divided into two aliquots of 50 μL each. Compound 2 or DMSO was added to each sample. The sample was heated from 50 °C to 62 °C, then cooled for 3 min [33]. Finally, all samples were processed under 4.7.

T1 sequence (P29350 whole entry): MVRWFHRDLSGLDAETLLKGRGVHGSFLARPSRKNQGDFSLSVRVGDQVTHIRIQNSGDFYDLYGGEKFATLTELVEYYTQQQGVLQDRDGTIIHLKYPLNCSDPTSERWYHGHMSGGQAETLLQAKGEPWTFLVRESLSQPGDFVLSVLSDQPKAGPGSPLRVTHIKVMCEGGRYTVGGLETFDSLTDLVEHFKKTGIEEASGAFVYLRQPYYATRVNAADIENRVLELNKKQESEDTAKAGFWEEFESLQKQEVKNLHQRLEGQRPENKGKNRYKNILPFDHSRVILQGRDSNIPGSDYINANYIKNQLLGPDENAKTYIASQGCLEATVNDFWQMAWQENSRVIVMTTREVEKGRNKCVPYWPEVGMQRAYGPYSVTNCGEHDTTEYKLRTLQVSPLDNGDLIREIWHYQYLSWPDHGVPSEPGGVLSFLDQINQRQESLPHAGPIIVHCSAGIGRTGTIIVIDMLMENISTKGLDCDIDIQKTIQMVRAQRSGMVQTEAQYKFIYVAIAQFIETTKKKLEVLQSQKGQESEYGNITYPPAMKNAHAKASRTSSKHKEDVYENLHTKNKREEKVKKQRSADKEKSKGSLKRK

Turning to `CC1=C(C)C2=CC(=O)C3=C(C(=O)c4oc(C)cc4C3=O)[C@@]2(C)CC1` [Compound 1, 12, 16-epoxy-17(15→16), 18(4→3)-diabeo-abieta-3,5,8, 12, 15-pentaene-7, 11, 14-trione], the “inhibitory effect on SHP1 catalytic activity” value on SHP1 is recorded as “inhibited SHP1 catalytic activity at high concentrations”. The same compound registered an IC50 at SHP2 [1] of 26 ± 1.41 µM.
Regarding `CC1=C(C)C2=CC(=O)c3c(c(O)c4occ(C)c4c3O)[C@@]2(C)CC1` [Compound 2, Ajuforrestin A], the “inhibitory effect on SHP1” value at SHP1 (below 20 μM) is “no inhibitory effects”. Besides, the A549 cell viability result with A549 cells [2] (24 h treatment) was “did not affect A549 cell viability”. The IC50 with A549 cells [2] (Homo sapiens, A549, CCK-8, 72 h, read-out: IC50 A549 cell proliferation) was 8.68 ± 0.96 µM; against SHP2 [1], 7.01 ± 0.85 µM. Further, in the assay on A549 cells [3], the apoptotic cells entry was “obvious increase in apoptotic cells”. The “cellular SHP2 expression” value in the assay on SHP2 [4] is recorded as “suppressed SHP2 expression in a dose-dependent manner”. Moreover, the “expression of SHP2 and phosphorylation of SHP2” value in the assay with SHP2 [4] is reported as “down-regulated”. In addition, the p-ERK1/2 expression entry in assay [5] was “markedly inhibited p-ERK1/2 expression”. Further, the “PI3K-AKT and STAT3 signaling pathways” value in assay [5] (various concentrations) was “obviously inhibited”. In addition, the “A549 cell invasion ability” value with A549 cells [6] was “obviously decreased”. Further, the A549 cell migration entry with A549 cells [7] is “significantly restrained A549 cell migration”. Further, the cleaved-PARP result in [8] was “activated”. Moreover, in assay [8] (various doses), the “cleaved caspase-3, 8, 9” value was “up-regulated”. Besides, in the assay with caspase-3, the caspase-3 expression result is listed as “significant rise in caspase-3 expression in a dose-dependent manner”. The “SHP2 stability with increasing concentration (CETSA)” value on SHP2 [9] is “raised SHP2 stability”. Also, the “SHP2 thermal stability (CETSA)” value on SHP2 [9] (50 °C to 62 °C) is “decrease in SHP2 expression with increasing temperature was suppressed”.
Take `CC1=C(C)C2=CC(=O)c3c(O)c4c(c(O)c3[C@@]2(C)CC1=O)OC[C@H]4C` [Compound 3, Ajudecumin A]: on SHP1, the “inhibitory effect on SHP1 catalytic activity” value is “inhibited SHP1 catalytic activity at high concentrations”. The IC50 at SHP2 [1] is 20 ± 1.31 µM.
